# Reference: patent publication US4429127A, “Quinoline carboxylic acid derivative” (Kyorin Pharmaceutical Co., Ltd., priority 1981, dated 1984)
# Read-outs that look alike come from different tables or passages of the source.
# How the values were obtained:
# gram-negative bacteria [1] = details: background; cited from earlier work
# gram-negative bacteria [2] = assay: In vitro antibacterial activity against gram-negative bacteria (in words); format: cell-based; details: for Antibacterial activity on gram-negative bacteria, in words: in vitro
# Description: (§1) The minimum inhibitory concentration (MIC) of the compound (I) was determined by an agar dilution technique (the standard method of Japan Society of Chemotherapy) against standard strains of gram-positive and gram-negative bacteria.
# Streptococcus spp. = assay: In vitro antibacterial activity against Streptococcus spp. (in words); format: cell-based
# Description: as §1
# [3] = tested on: Staphylococcus aureus Smith; assay: MIC against the infecting strain (Table 2); format: cell-based
# Description: as §1
# E. coli ML4707 [4] = assay: MIC against the infecting strain (Table 2); format: cell-based; details: Escherichia coli, ML4707
# Description: as §1
# gram-positive bacteria [5] = details: background; cited from earlier work
# S. faecalis IID682 = assay: In vitro antibacterial activity (MIC, agar dilution); format: cell-based; details: Enterococcus faecalis
# Description: as §1
# (§2) Inoculum size: 10^8 cells/ml
# E. coli ATCC10536 = assay: as above; format: cell-based; details: Escherichia coli
# Description: as §1, §2
# [6] = tested on: Salmonella enteritidis IID604; assay: as above; format: cell-based; details: Salmonella enterica
# Description: as §1, §2
# P. aeruginosa IFO12689 = assay: as above; format: cell-based; details: Pseudomonas aeruginosa
# Description: as §1, §2
# S. pneumoniae IID552 = assay: as above; format: cell-based; details: Streptococcus pneumoniae
# Description: as §1, §2
# [7] = tested on: Haemophilus influenzae IID986; assay: as above; format: cell-based
# Description: as §1, §2
# [8] = tested on: Bacillus subtilis PCI 219; assay: as above; format: cell-based; details: PCI219
# Description: as §1, §2
# Proteus vulgaris IFO3167 = assay: as above; format: cell-based
# Description: as §1, §2
# Shigella sonnei IID969 = assay: as above; format: cell-based; details: inoculum 10^8 cells/ml
# Description: as §1, §2
# S. pyogenes S-8 = assay: as above; format: cell-based; details: Streptococcus pyogenes, S8
# Description: as §1, §2
# E. coli NIHJ JC-2 = assay: as above; format: cell-based; details: Escherichia coli, NIHJJC2
# Description: as §1, §2
# [9] = tested on: Klebsiella pneumoniae IFO3512; assay: as above; format: cell-based
# Description: as §1, §2
# [10] = tested on: Streptococcus pyogenes IID692; assay: as above; format: cell-based
# Description: as §1, §2
# [11] = tested on: Staphylococcus aureus 209P; assay: as above; format: cell-based
# Description: as §1, §2
# [12] = tested on: S. aureus IID670 (Terajima); assay: as above; format: cell-based; details: Staphylococcus aureus
# Description: as §1, §2
# [13] = tested on: Pseudomonas aeruginosa V-1; assay: as above; format: cell-based; details: V1
# Description: as §1, §2
# gram-positive bacteria [14] = assay: In vitro antibacterial activity against gram-positive bacteria (in words); format: cell-based
# Description: as §1
# [15] = tested on: Staphylococcus aureus Smith; assay: In vivo antibacterial activity, systemic infection in mice; design: species or system mice (male, ICR); details: Staphylococcus aureus, 168 h
# Description: (§3) The in vivo antibacterial activity of the compound (I) was determined in systemic infection in mice. The systemic infections were produced in male mice ICR (body weight, 19±2 g) by inoculating intraperitoneally with Staphylococcus aureus Smith and E. coli ML4707. The compounds were administered orally in divided doses at 0 and 4 hrs. after infection. The therapeutic effect of drugs was judged from the number of mice surviving after 7 days of observation. A comparison of in vivo antibacterial activity was made on the basis of the […] effective dose (ED50) calculated by the method of Litchfield and Wilcoxon.
# E. coli ML4707 [16] = assay: as above; design: species or system mice (male, ICR); details: Escherichia coli
# Description: as §3
# P. morganii IID602 = assay: In vitro antibacterial activity (MIC, agar dilution); format: cell-based; details: Morganella morganii, inoculum 10^8 cells/ml
# Description: as §1, §2
# [17] = tested on: Yersinia enterocolitica IID981; assay: as above; format: cell-based; details: inoculum 10^8 cells/ml
# Description: as §1, §2
# S. epidermidis IID866 = assay: as above; format: cell-based; details: Staphylococcus epidermidis, inoculum 10^8 cells/ml
# Description: as §1, §2
# [18] = tested on: Citrobacter freundii IID976; assay: as above; format: cell-based; details: inoculum 10^8 cells/ml
# Description: as §1, §2
# [19] = tested on: Enterobacter cloacae IID977; assay: as above; format: cell-based; details: inoculum 10^8 cells/ml
# Description: as §1, §2
# [20] = tested on: Serratia marcescens IID618; assay: as above; format: cell-based; details: inoculum 10^8 cells/ml
# Description: as §1, §2
# [21] = tested on: Alcaligenes faecalis 0104002; assay: as above; format: cell-based; details: inoculum 10^8 cells/ml
# Description: as §1, §2
# P. mirabilis IID994 = assay: as above; format: cell-based; details: Proteus mirabilis, inoculum 10^8 cells/ml
# Description: as §1, §2
# [22] = tested on: Acinetobacter enitratus IID876; assay: as above; format: cell-based; details: inoculum 10^8 cells/ml
# Description: as §1, §2
# [23] = S. faecalis IID682, inoculum 10^8 cells/ml, read-out: MIC
# [24] = Salmonella enteritidis IID604, inoculum 10^8 cells/ml, read-out: MIC
# [25] = P. aeruginosa IFO12689, inoculum 10^8 cells/ml, read-out: MIC
# [26] = S. pneumoniae IID552, inoculum 10^8 cells/ml, read-out: MIC
# [27] = Bacillus subtilis PCI 219, inoculum 10^8 cells/ml, read-out: MIC
# [28] = Proteus vulgaris IFO3167, inoculum 10^8 cells/ml, read-out: MIC
# [29] = S. pyogenes S-8, inoculum 10^8 cells/ml, read-out: MIC
# [30] = Streptococcus pyogenes IID692, inoculum 10^8 cells/ml, read-out: MIC
# [31] = Staphylococcus aureus 209P, inoculum 10^8 cells/ml, read-out: MIC
# [32] = S. aureus IID670 (Terajima), inoculum 10^8 cells/ml, read-out: MIC
# [33] = Pseudomonas aeruginosa V-1, inoculum 10^8 cells/ml, read-out: MIC
Compound,"Effectiveness in therapy of infections due to gram-negative bacteria, in words (gram-negative bacteria [1])","Antibacterial activity on gram-negative bacteria, in words (gram-negative bacteria [2])","Susceptibility of Streptococcus spp., in words (Streptococcus spp.)",MIC (E. coli ML4707 [4]) [µg/mL],"Activity against most gram-positive bacteria, in words (gram-positive bacteria [5])",MIC (E. coli ATCC10536; ATCC10536) [µg/mL],"MIC ([7]; Haemophilus influenzae, IID986) [µg/mL]",MIC (Shigella sonnei IID969) [µg/mL],MIC (E. coli NIHJ JC-2) [µg/mL],"MIC ([9]; Klebsiella pneumoniae, IFO3512) [µg/mL]","Antibacterial activity on gram-positive bacteria, in words (gram-positive bacteria [14])",MIC (S. faecalis IID682; [23]) [µg/mL],"MIC [6, 24] [µg/mL]",MIC (P. aeruginosa IFO12689; [25]) [µg/mL],MIC (S. pneumoniae IID552; [26]) [µg/mL],"MIC [8, 27] [µg/mL]",MIC (Proteus vulgaris IFO3167; [28]) [µg/mL],MIC (S. pyogenes S-8; [29]) [µg/mL],"MIC [10, 30] [µg/mL]","MIC [11, 31] [µg/mL]",also measured
"CCn1cc(C(=O)O)c(=O)c2ccc(C)nc21 [NA, Nalidixic acid]",highly effective in the therapy of infections due to gram-negative bacteria,exerted antibacterial activity mainly on gram-negative bacteria,not susceptible,3.13,only weak activities against most gram-positive bacteria,3.13,1.56,1.56,3.13,1.56,inactive on many strains of gram-positive bacteria,,,,,,,,,,"MIC ([3]; Staphylococcus aureus): 25 µg/mL; MIC (S. faecalis IID682; IID682): > 100 µg/mL; MIC [6]: 12.5 µg/mL; MIC (P. aeruginosa IFO12689; IFO12689): > 100 µg/mL; MIC (S. pneumoniae IID552; IID552): > 100 µg/mL; MIC ([8]; Bacillus subtilis): 6.25 µg/mL; MIC (Proteus vulgaris IFO3167; Proteus vulgaris, IFO3167): 3.13 µg/mL; MIC (S. pyogenes S-8): > 100 µg/mL; MIC ([10]; Streptococcus pyogenes, IID692): > 100 µg/mL; MIC ([11]; Staphylococcus aureus, 209P): 100 µg/mL; MIC ([12]; IID670): > 100 µg/mL; MIC ([13]; Pseudomonas aeruginosa): 100 µg/mL; ED50 ([15]; po): 635 mg/kg; ED50 (E. coli ML4707 [16]; ML4707, po, 168 h): 38.3 mg/kg"
"CCn1cc(C(=O)O)c(=O)c2cnc(N3CCNCC3)nc21 [PPA, Pipemidic acid]",highly effective in the therapy of infections due to gram-negative bacteria,exerted antibacterial activity mainly on gram-negative bacteria,not susceptible,1.56,only weak activities against most gram-positive bacteria,1.56,,1.56,1.56,1.56,inactive on many strains of gram-positive bacteria,> 100,12.5,25,> 100,6.25,3.13,> 100,> 100,25,"MIC ([3]; Staphylococcus aureus Smith, read-out: MIC): 12.5 µg/mL; MIC ([7]; Haemophilus influenzae IID986, inoculum 10^8 cells/ml, read-out: MIC): 3.13 µg/mL; MIC [12, 32]: 25 µg/mL; MIC [13, 33]: 12.5 µg/mL; ED50 ([15]; mice, oral at 0 and 4 hrs. after infection, challenge 2.4 × 10^5 cells/animal in BHI containing mucin, 7 days survival, read-out: ED50): 231 mg/kg; ED50 (E. coli ML4707 [16]; ML4707, 168 h, mice, oral at 0 and 4 hrs. after infection, challenge 1.2 × 10^7 cells/animal in saline, 7 days survival, read-out: ED50): 38.9 mg/kg"
CCn1cc(C(=O)O)c(=O)c2cnc(N3CCCC3)nc21 [piromidic acid],highly effective in the therapy of infections due to gram-negative bacteria,,,,only weak activities against most gram-positive bacteria,,,,,,,,,,,,,,,,
"CCn1cc(C(=O)O)c(=O)c2cc(F)c(N3CCNCC3)c(F)c21 [Metabolite, 1-ethyl-6,8-difluoro-1,4-dihydro-4-oxo-7-(1-piperazinyl)quinoline-3-carboxylic acid]",,,,,,,0.025,0.05,,,,3.13,0.1,1.56,6.25,0.2,0.05,12.5,3.13,0.78,"Activity of the metabolite against gram-negative bacteria, in words (gram-negative bacteria [2]; general statement): superior activity against gram-negative bacteria; MIC (E. coli ATCC10536; E. coli ATCC10536, inoculum 10^8 cells/ml, read-out: MIC): 0.05 µg/mL; MIC (P. morganii IID602): 0.1 µg/mL; MIC [17]: 0.1 µg/mL; MIC (S. epidermidis IID866): 0.78 µg/mL; MIC (E. coli NIHJ JC-2; E. coli NIHJ JC-2, inoculum 10^8 cells/ml, read-out: MIC): 0.05 µg/mL; MIC [18]: 0.1 µg/mL; MIC ([9]; Klebsiella pneumoniae IFO3512, inoculum 10^8 cells/ml, read-out: MIC): 0.05 µg/mL; MIC [19]: 0.1 µg/mL; MIC [20]: 0.1 µg/mL; MIC [21]: 0.78 µg/mL; MIC (P. mirabilis IID994): 0.05 µg/mL; MIC [12, 32]: 0.78 µg/mL; MIC [13, 33]: 0.78 µg/mL; MIC [22]: 0.78 µg/mL"
